The source of these data is US12686665B2, “Bicyclic fused ring derivative or salt thereof and pharmaceutical composition comprising same” (YUHAN CORPORATION, priority 2021, dated 2026).

Common to all, as to type: biochemical
In experiment [1] the target is T1, recombinant human Lysyl Oxidase-Like 2 (LOXL2) (Homo sapiens, UniProt Q9Y4K0).
T1 construct: purchased R&D systems
T1 sequence (Q9Y4K0 26-774): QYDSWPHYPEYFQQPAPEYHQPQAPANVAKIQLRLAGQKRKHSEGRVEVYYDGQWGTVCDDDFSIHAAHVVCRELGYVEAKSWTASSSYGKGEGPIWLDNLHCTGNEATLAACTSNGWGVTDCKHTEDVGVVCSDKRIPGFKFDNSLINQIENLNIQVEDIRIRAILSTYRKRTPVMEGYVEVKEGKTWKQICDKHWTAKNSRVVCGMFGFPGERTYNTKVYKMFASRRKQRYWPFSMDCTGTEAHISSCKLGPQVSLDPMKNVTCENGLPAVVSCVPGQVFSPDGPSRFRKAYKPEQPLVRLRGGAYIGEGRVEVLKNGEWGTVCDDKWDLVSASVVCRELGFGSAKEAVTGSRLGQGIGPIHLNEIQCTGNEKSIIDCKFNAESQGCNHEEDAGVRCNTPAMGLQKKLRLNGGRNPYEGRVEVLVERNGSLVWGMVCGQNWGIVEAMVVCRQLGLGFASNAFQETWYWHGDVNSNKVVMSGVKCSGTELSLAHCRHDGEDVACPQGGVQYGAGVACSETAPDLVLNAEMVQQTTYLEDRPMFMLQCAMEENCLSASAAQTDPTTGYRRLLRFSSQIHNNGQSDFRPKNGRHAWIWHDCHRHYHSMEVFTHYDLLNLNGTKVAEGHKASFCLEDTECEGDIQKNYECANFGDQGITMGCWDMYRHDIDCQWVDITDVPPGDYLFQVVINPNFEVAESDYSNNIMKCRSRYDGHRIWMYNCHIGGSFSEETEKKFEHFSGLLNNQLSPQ
Description: Amplex Red HRP-coupled amine oxidase assay, recombinant human LOXL2. The following applies: 60 min incubation with enzyme at 37° C., putrescine substrate, read-out: Inhibitory activity (IC50, nM) human LOXL2. In short, it runs like this: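 Putrescine substrate (30 mM) in 50 mM sodium phosphate pH 7.4, 37 °C; compounds preincubated 60 min with enzyme, 1% DMSO final, six-point curves. H2O2 detected via 400 μM Amplex Red/2 U/mL HRP, fluorescence (ex 530/em 590 nm) after 1 h; IC50 from four-parameter logistic fit of % signal reduction.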

Experiment [2] has as its target T2, recombinant human MAO-B (monoamine oxidase-B) (Homo sapiens, UniProt P27338).
T2 construct: purchased Sigma-Aldrich
T2 sequence (P27338 1-520): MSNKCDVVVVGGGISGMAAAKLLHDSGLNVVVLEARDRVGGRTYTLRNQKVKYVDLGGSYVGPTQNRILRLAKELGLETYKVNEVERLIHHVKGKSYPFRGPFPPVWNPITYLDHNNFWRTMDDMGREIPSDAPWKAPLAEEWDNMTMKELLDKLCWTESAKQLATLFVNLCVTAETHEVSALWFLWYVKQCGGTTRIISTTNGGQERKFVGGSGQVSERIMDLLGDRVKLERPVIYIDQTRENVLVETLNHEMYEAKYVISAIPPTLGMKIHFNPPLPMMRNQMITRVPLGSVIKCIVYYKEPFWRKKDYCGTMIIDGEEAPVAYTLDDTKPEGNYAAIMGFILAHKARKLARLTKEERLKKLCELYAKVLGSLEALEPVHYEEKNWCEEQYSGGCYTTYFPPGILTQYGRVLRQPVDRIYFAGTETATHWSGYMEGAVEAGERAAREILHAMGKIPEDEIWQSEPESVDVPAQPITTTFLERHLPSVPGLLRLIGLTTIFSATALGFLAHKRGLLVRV
The experiment can be described thus: Amplex Red HRP-coupled amine oxidase assay, recombinant human MAO-B. The settings on record: 1 mM benzylamine substrate, read-out: Inhibitory activity (IC50, nM) MAO-B. How it is done:
(§1) The activities of the compounds according to the present invention against recombinant human Lysyl Oxidase-Like 2 (recombinant human LOXL2, R&D systems) were evaluated by measuring the levels of hydrogen peroxide in the HRP (horseradish peroxidase) coupled reactions, with the Amplex Red Hydrogen Peroxide Assay Kit (Molecular Probes, Invitrogen, USA). The tests were carried out at 37° C., and putrescine was used as a substrate. In the HRP coupling reaction, the oxidation of 10-acetyl-3,7-dihydroxyphenoxazine (Amplex Red reagent) by hydrogen peroxide generates a fluorescent product, i.e., resorufin. Briefly, the test compounds were dissolved in dimethyl sulfoxide (DMSO) at a concentration of 20 mM. Dose-response measurements were carried out by serial dilutions in DMSO to generate a six-point curve. The upper concentration was adjusted according to the potency of the compound, and then diluted with the reaction buffer to obtain a final DMSO concentration of 1%. Purified human LOXL2 in 50 mM sodium phosphate buffer (pH7.4) was added to each well of a 96 well black plate. The test compounds dissolved in DMSO were incubated with the human LOXL2 enzyme at 37° C. for 60 minutes. After the incubation for 60 minutes, a reaction mixture containing 400 μM Amplex Red reagent, 30 mM putrescine, and 2 U/mL HRP in 50 mM sodium phosphate buffer (pH 7.4) was added to each well. Fluorescence was measured with a microplate reader (Flexstation3, Molecular Devices), under the conditions of excitation at 530 nm and emission at 590 nm, 1 hour after the addition of the mixture. Inhibition by each compound was measured as % reduction in signal, compared to the control without an inhibitor (diluted DMSO only). The data were fixed to a four-variable logistic model, and […] values were calculated using the GraphPad Prism program.
(§2) And, the activities of the compounds according to the present invention against recombinant human MAO-A (monoamine oxidase-A, Sigma-Aldrich) and recombinant human MAO-B (monoamine oxidase-B, Sigma-Aldrich) were evaluated in a similar manner to the activity evaluation method for recombinant human LOXL2, using 0.5 mM tyramine and 1 mM benzylamine as a substrate, respectively. In addition, the activities of the compounds according to the present invention against recombinant human DAO (diamine oxidase, R&D systems) were evaluated in a similar manner to the activity evaluation method for recombinant human LOXL2, using 1 mM putrescine as a substrate.

Experiment [3] deals with T3, recombinant human DAO (diamine oxidase) (Homo sapiens, UniProt P19801).
T3 construct: purchased R&D systems
T3 sequence (P19801 20-751): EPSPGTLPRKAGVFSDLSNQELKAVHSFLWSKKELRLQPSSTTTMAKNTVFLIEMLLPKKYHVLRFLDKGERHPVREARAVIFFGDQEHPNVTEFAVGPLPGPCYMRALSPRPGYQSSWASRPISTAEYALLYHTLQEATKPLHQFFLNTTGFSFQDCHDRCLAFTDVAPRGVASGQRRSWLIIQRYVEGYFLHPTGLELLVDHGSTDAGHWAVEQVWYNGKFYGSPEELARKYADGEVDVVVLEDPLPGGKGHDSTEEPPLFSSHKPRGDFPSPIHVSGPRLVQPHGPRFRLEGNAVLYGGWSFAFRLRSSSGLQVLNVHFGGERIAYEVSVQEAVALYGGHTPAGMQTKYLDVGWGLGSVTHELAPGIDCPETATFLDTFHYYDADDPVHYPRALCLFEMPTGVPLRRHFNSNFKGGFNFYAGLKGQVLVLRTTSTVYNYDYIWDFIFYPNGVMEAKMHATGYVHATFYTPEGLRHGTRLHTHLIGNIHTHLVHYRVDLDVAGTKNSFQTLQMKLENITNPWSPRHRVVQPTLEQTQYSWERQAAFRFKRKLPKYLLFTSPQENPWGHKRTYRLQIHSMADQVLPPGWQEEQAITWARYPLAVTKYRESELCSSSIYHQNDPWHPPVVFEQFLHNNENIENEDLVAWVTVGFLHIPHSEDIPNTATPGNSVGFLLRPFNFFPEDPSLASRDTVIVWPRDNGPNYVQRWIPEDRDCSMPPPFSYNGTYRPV
The experiment can be described thus: Amplex Red HRP-coupled amine oxidase assay, recombinant human DAO. The following applies: 1 mM putrescine substrate, read-out: Inhibitory activity (IC50, nM) DAO. How it is done: as §1, §2

Counter-ions that a name gives are not always drawn.

Usually IC50 stands for the midpoint of a concentration-inhibition curve. As for `COC(=O)c1cc(-c2cc(S(=O)(=O)NC3CC3)ccc2OC)c2nnn(C/C(F)=C/CN)c2c1` [Example 120, methyl (Z)-1-(4-amino-2-fluorobut-2-en-1-yl)-4-(5-(N-cyclopropylsulfamoyl)-2-methoxyphenyl)-1H-benzo[d][1,2,3]triazol-6-carboxylate hydrochloride], the results for the IC50 in experiment [1], in experiment [2] and in experiment [3] were 17.1 nM, 97000 nM and 2830 nM, respectively. With `CN(C)S(=O)(=O)c1cccc(-c2cc(C(F)(F)F)cc3c2nnn3C/C(F)=C/CN)c1` [Example 196, (Z)-3-(1-(4-amino-2-fluorobut-2-en-1-yl)-6-(trifluoromethyl)-1H-benzo[d][1,2,3]triazol-4-yl)—N,N-dimethylbenzenesulfonamide hydrochloride], the IC50 in experiment [1] stood at 34 nM; in experiment [3], 3150 nM.

Consider `CCn1nccc1-c1cc(C(F)(F)F)cc2c1nnn2C/C(F)=C/CN` [Example 203, (Z)-4-(4-(1-ethyl-1H-pyrazol-5-yl)-6-(trifluoromethyl)-1H-benzo[d][1,2,3]triazol-1-yl)-3-fluorobut-2-en-1-amine hydrochloride], for which the IC50 in experiment [1] came out at 351 nM. Same read-out and setting: next, `Cc1cc(-c2cc(C(F)(F)F)cc3c2nnn3C/C(F)=C/CN)n(C)n1` [Example 204, (Z)-4-[4-(1,3-dimethyl-1H-pyrazol-5-yl)-6-(trifluoromethyl)-1H-benzo[d][1,2,3]triazol-1-yl]-3-fluorobut-2-en-1-amine hydrochloride]: 497 nM. `NC/C=C(\F)Cn1nnc2c(-c3cnn(CCO)c3)cc(C(F)(F)F)cc21` [Example 205, (Z)-2-(4-(1-(4-amino-2-fluorobut-2-en-1-yl)-6-(trifluoromethyl)-1H-benzo[d][1,2,3]triazol-4-yl]-1H-pyrazol-1-yl)ethan-1-ol hydrochloride]: the IC50 in experiment [1] was found to be 182 nM. As for `N#Cc1cc(-c2cc(CO)ccc2F)c2nnn(C/C(F)=C/CN)c2c1` [Example 206, (Z)-1-(4-amino-2-fluorobut-2-en-1-yl)-4-[2-fluoro-5-(hydroxymethyl)phenyl]-1H-benzo[d][1,2,3]triazol-6-carbonitrile hydrochloride], the figures for the IC50 in experiment [1] and in experiment [3] were 200 nM and 1960 nM, respectively. With `N#Cc1cc(-c2cccc(CO)c2Cl)c2nnn(C/C(F)=C/CN)c2c1` [Example 207, (Z)-1-(4-amino-2-fluorobut-2-en-1-yl)-4-[2-chloro-3-(hydroxymethyl)phenyl-1H-benzo[d][1,2,3]triazol-6-carbonitrile hydrochloride], the IC50 worked out at 281 nM in experiment [1] and 7440 nM in experiment [3]. Regarding `N#Cc1cc(-c2cncc(F)c2)c2nnn(C/C(F)=C/CN)c2c1` [Example 208, (Z)-1-(4-amino-2-fluorobut-2-en-1-yl)-4-(5-fluoropyridin-3-yl)-1H-benzo[d][1,2,3]triazol-6-carbonitrile hydrochloride], in experiment [1], the IC50 was found to be 270 nM. On the same count and under the same terms, next, `N#Cc1cc(-c2cncc(Cl)c2)c2nnn(C/C(F)=C/CN)c2c1` [Example 209, (Z)-1-(4-amino-2-fluorobut-2-en-1-yl)-4-(5-chloropyridin-3-yl)-1H-benzo[d][1,2,3]triazol-6-carbonitrile hydrochloride]: 86.8 nM.

For the compound `N#Cc1cc(-c2cncnc2)c2nnn(C/C(F)=C/CN)c2c1` [Example 210, (Z)-1-(4-amino-2-fluorobut-2-en-1-yl)-4-(pyrimidin-5-yl)-1H-benzo[d][1,2,3]triazol-6-carbo nitrile hydrochloride], the figures for the IC50 in experiment [1] and in experiment [3] were 264 nM and 432 nM, respectively. Regarding `Cn1nccc1-c1cc(C#N)cc2c1nnn2C/C(F)=C/CN` [Example 211, (Z)-1-(4-amino-2-fluorobut-2-en-1-yl)-4-(1-methyl-1H-pyrazol-5-yl)-1H-benzo[d][1,2,3]triazol-6-carbonitrile hydrochloride], the IC50 worked out at 350 nM in experiment [1] and 1730 nM in experiment [3].
